Assay results reported in ChEMBL document CHEMBL3044818, “Fungicide resistance status in French populations of the wheat eyespot fungi Oculimacula acuformis and Oculimacula yallundae” (Pest Manag Sci, 2013).
In brackets after ≈: the same amount, converted by molar mass.

tested on: Oculimacula yallundae; assay: Resistance index, ratio of EC50 for sterol 14alpha-demethylation inhibitor-resistant Oculimacula yallundae TriR1 to EC50 for wild type Oculimacula yallundae TriS by mycelial growth inhibition assay; assay type: functional; details: not given

| SMILES | Ratio EC50 |
| --- | --- |
| Fc1ccc([C@]2(Cn3cncn3)O[C@H]2c2ccccc2Cl)cc1 (relative stereo) [EPOXICONAZOLE] | 3.3 |
| CC(C1CC1)C(O)(Cn1cncn1)c1ccc(Cl)cc1 (configuration not stated) [CYPROCONAZOLE] | 23 |
| CC1(C(=O)Nc2ccc(O)c(Cl)c2Cl)CCCCC1 [FENHEXAMID] | 1.5 |

tested on: Oculimacula yallundae; assay: Resistance index, ratio of EC50 for prochloraz-resistant Oculimacula yallundae isolate ProR2 to EC50 for prochloraz-susceptible Oculimacula yallundae isolate ProS by germ tube elongation inhibition assay; assay type: functional; details: not given

| SMILES | Ratio EC50 |
| --- | --- |
| Fc1ccc([C@]2(Cn3cncn3)O[C@H]2c2ccccc2Cl)cc1 (relative stereo) [EPOXICONAZOLE] | 3 |
| CC(C1CC1)C(O)(Cn1cncn1)c1ccc(Cl)cc1 (configuration not stated) [CYPROCONAZOLE] | 0.8 |

tested on: Oculimacula yallundae; assay: Fungicidal activity against prochloraz-susceptible Oculimacula yallundae isolate ProS assessed as inhibition of germ tube elongation incubated at 19 degC in dark for 48 hr; assay type: functional, organism-based; details: not given

| SMILES | EC50 [µg/mL] |
| --- | --- |
| Fc1ccc([C@]2(Cn3cncn3)O[C@H]2c2ccccc2Cl)cc1 (relative stereo) [EPOXICONAZOLE] | 0.3 (≈ 0.91 µM) |
| CC(C1CC1)C(O)(Cn1cncn1)c1ccc(Cl)cc1 (configuration not stated) [CYPROCONAZOLE] | 3 (≈ 10.3 µM) |

tested on: Oculimacula yallundae; assay: Fungicidal activity against Oculimacula yallundae assessed as inhibition of germ tube elongation incubated at 19 degC in dark for 48 hr; assay type: functional, organism-based; details: not given

| SMILES | EC50 [µg/mL] |
| --- | --- |
| Fc1ccc([C@]2(Cn3cncn3)O[C@H]2c2ccccc2Cl)cc1 (relative stereo) [EPOXICONAZOLE] | 0.02 (≈ 0.0606 µM) |
| CC(C1CC1)C(O)(Cn1cncn1)c1ccc(Cl)cc1 (configuration not stated) [CYPROCONAZOLE] | 0.05 (≈ 0.171 µM) |
| CC1(C(=O)Nc2ccc(O)c(Cl)c2Cl)CCCCC1 [FENHEXAMID] | 0.06 (≈ 0.199 µM) |

tested on: Oculimacula yallundae; assay: Resistance index, ratio of EC50 for prochloraz-resistant Oculimacula yallundae isolate ProR1 to EC50 for prochloraz-susceptible Oculimacula yallundae isolate ProS by mycelial growth inhibition assay; assay type: functional; details: not given

| SMILES | Ratio EC50 |
| --- | --- |
| Fc1ccc([C@]2(Cn3cncn3)O[C@H]2c2ccccc2Cl)cc1 (relative stereo) [EPOXICONAZOLE] | 3.3 |

tested on: Oculimacula yallundae; assay: Resistance index, ratio of EC50 for sterol 14alpha-demethylation inhibitor-resistant Oculimacula yallundae MDR to EC50 for sterol 14alpha-demethylation inhibitor-resistant Oculimacula yallundae TriR1 by germ tube elongation assay; assay type: functional; details: not given

| SMILES | Ratio EC50 |
| --- | --- |
| Fc1ccc([C@]2(Cn3cncn3)O[C@H]2c2ccccc2Cl)cc1 (relative stereo) [EPOXICONAZOLE] | 5 |
| CC(C1CC1)C(O)(Cn1cncn1)c1ccc(Cl)cc1 (configuration not stated) [CYPROCONAZOLE] | 1 |
| CC1(C(=O)Nc2ccc(O)c(Cl)c2Cl)CCCCC1 [FENHEXAMID] | 28 |

tested on: Oculimacula yallundae; assay: Resistance index, ratio of EC50 for sterol 14alpha-demethylation inhibitor-resistant Oculimacula yallundae TriR2 to EC50 for wild type Oculimacula yallundae TriS by germ tube elongation assay; assay type: functional; details: not given

| SMILES | Ratio EC50 |
| --- | --- |
| Fc1ccc([C@]2(Cn3cncn3)O[C@H]2c2ccccc2Cl)cc1 (relative stereo) [EPOXICONAZOLE] | 60 |
| CC(C1CC1)C(O)(Cn1cncn1)c1ccc(Cl)cc1 (configuration not stated) [CYPROCONAZOLE] | 100 |
| CC1(C(=O)Nc2ccc(O)c(Cl)c2Cl)CCCCC1 [FENHEXAMID] | 1.2 |

tested on: not listed separately; assay: Selectivity index, ratio of EC50 for Oculimacula acuformis to EC50 for Oculimacula yallundae in presence of 10 g glucose by mycelial growth inhibition assay; assay type: functional; details: not given

| SMILES | Ratio EC50 |
| --- | --- |
| Fc1ccc([C@]2(Cn3cncn3)O[C@H]2c2ccccc2Cl)cc1 (relative stereo) [EPOXICONAZOLE] | 2 |
| CC(C1CC1)C(O)(Cn1cncn1)c1ccc(Cl)cc1 (configuration not stated) [CYPROCONAZOLE] | 40 |
| CC1(C(=O)Nc2ccc(O)c(Cl)c2Cl)CCCCC1 [FENHEXAMID] | 0.8 |

tested on: Oculimacula yallundae; assay: Resistance index, ratio of EC50 for prochloraz-resistant Oculimacula yallundae isolate ProR2 to EC50 for prochloraz-susceptible Oculimacula yallundae isolate ProS by mycelial growth inhibition assay; assay type: functional; details: not given

| SMILES | Ratio EC50 |
| --- | --- |
| Fc1ccc([C@]2(Cn3cncn3)O[C@H]2c2ccccc2Cl)cc1 (relative stereo) [EPOXICONAZOLE] | 5 |

tested on: Oculimacula yallundae; assay: Resistance index, ratio of EC50 for sterol 14alpha-demethylation inhibitor-resistant Oculimacula yallundae TriR2 to EC50 for sterol 14alpha-demethylation inhibitor-resistant Oculimacula yallundae TriR1 by mycelial growth inhibition assay; assay type: functional; details: not given

| SMILES | Ratio EC50 |
| --- | --- |
| Fc1ccc([C@]2(Cn3cncn3)O[C@H]2c2ccccc2Cl)cc1 (relative stereo) [EPOXICONAZOLE] | 1 |
| CC(C1CC1)C(O)(Cn1cncn1)c1ccc(Cl)cc1 (configuration not stated) [CYPROCONAZOLE] | 0.7 |
| CC1(C(=O)Nc2ccc(O)c(Cl)c2Cl)CCCCC1 [FENHEXAMID] | 0.8 |

tested on: Oculimacula yallundae; assay: Fungicidal activity against Oculimacula yallundae assessed as inhibition of mycelial growth in presence of 10 g glucose incubated at 19 degC in dark for 4 weeks; assay type: functional, organism-based; details: 672 h

| SMILES | EC50 [µg/mL] |
| --- | --- |
| Fc1ccc([C@]2(Cn3cncn3)O[C@H]2c2ccccc2Cl)cc1 (relative stereo) [EPOXICONAZOLE] | 0.15 |
| CC(C1CC1)C(O)(Cn1cncn1)c1ccc(Cl)cc1 (configuration not stated) [CYPROCONAZOLE] | 0.3 |
| CC1(C(=O)Nc2ccc(O)c(Cl)c2Cl)CCCCC1 [FENHEXAMID] | 0.4 |

tested on: Oculimacula yallundae; assay: Resistance index, ratio of EC50 for sterol 14alpha-demethylation inhibitor-resistant Oculimacula yallundae TriR2 to EC50 for wild type Oculimacula yallundae TriS by mycelial growth inhibition assay; assay type: functional; details: not given

| SMILES | Ratio EC50 |
| --- | --- |
| Fc1ccc([C@]2(Cn3cncn3)O[C@H]2c2ccccc2Cl)cc1 (relative stereo) [EPOXICONAZOLE] | 3.3 |
| CC(C1CC1)C(O)(Cn1cncn1)c1ccc(Cl)cc1 (configuration not stated) [CYPROCONAZOLE] | 17 |
| CC1(C(=O)Nc2ccc(O)c(Cl)c2Cl)CCCCC1 [FENHEXAMID] | 1.2 |

tested on: Oculimacula yallundae; assay: Resistance index, ratio of EC50 for prochloraz-resistant Oculimacula yallundae isolate ProR1 to EC50 for prochloraz-susceptible Oculimacula yallundae isolate ProS by germ tube elongation inhibition assay; assay type: functional; details: not given

| SMILES | Ratio EC50 |
| --- | --- |
| Fc1ccc([C@]2(Cn3cncn3)O[C@H]2c2ccccc2Cl)cc1 (relative stereo) [EPOXICONAZOLE] | 2 |
| CC(C1CC1)C(O)(Cn1cncn1)c1ccc(Cl)cc1 (configuration not stated) [CYPROCONAZOLE] | 0.5 |

tested on: Oculimacula acuformis; assay: Fungicidal activity against Oculimacula acuformis assessed as inhibition of mycelial growth in presence of 10 g glucose incubated at 19 degC in dark for 4 weeks; assay type: functional, organism-based; details: 672 h

| SMILES | EC50 [µg/mL] |
| --- | --- |
| Fc1ccc([C@]2(Cn3cncn3)O[C@H]2c2ccccc2Cl)cc1 (relative stereo) [EPOXICONAZOLE] | 0.3 |
| CC(C1CC1)C(O)(Cn1cncn1)c1ccc(Cl)cc1 (configuration not stated) [CYPROCONAZOLE] | 12 |
| CC1(C(=O)Nc2ccc(O)c(Cl)c2Cl)CCCCC1 [FENHEXAMID] | 0.32 |

tested on: Oculimacula yallundae; assay: Resistance index, ratio of EC50 for sterol 14alpha-demethylation inhibitor-resistant Oculimacula yallundae MDR to EC50 for wild type Oculimacula yallundae TriS by mycelial growth inhibition assay; assay type: functional; details: not given

| SMILES | Ratio EC50 |
| --- | --- |
| Fc1ccc([C@]2(Cn3cncn3)O[C@H]2c2ccccc2Cl)cc1 (relative stereo) [EPOXICONAZOLE] | 6.7 |
| CC(C1CC1)C(O)(Cn1cncn1)c1ccc(Cl)cc1 (configuration not stated) [CYPROCONAZOLE] | 20 |
| CC1(C(=O)Nc2ccc(O)c(Cl)c2Cl)CCCCC1 [FENHEXAMID] | 2.5 |

tested on: Oculimacula acuformis; assay: Fungicidal activity against Oculimacula acuformis assessed as inhibition of germ tube elongation incubated at 19 degC in dark for 48 hr; assay type: functional, organism-based; details: not given

| SMILES | EC50 [µg/mL] |
| --- | --- |
| Fc1ccc([C@]2(Cn3cncn3)O[C@H]2c2ccccc2Cl)cc1 (relative stereo) [EPOXICONAZOLE] | 0.3 (≈ 0.91 µM) |
| CC(C1CC1)C(O)(Cn1cncn1)c1ccc(Cl)cc1 (configuration not stated) [CYPROCONAZOLE] | 3 (≈ 10.3 µM) |
| CC1(C(=O)Nc2ccc(O)c(Cl)c2Cl)CCCCC1 [FENHEXAMID] | 0.05 (≈ 0.165 µM) |

tested on: not listed separately; assay: Selectivity index, ratio of EC50 for Oculimacula acuformis to EC50 for Oculimacula yallundae by germ tube elongation inhibition assay; assay type: functional; details: not given

| SMILES | Ratio EC50 |
| --- | --- |
| Fc1ccc([C@]2(Cn3cncn3)O[C@H]2c2ccccc2Cl)cc1 (relative stereo) [EPOXICONAZOLE] | 15 |
| CC(C1CC1)C(O)(Cn1cncn1)c1ccc(Cl)cc1 (configuration not stated) [CYPROCONAZOLE] | 60 |
| CC1(C(=O)Nc2ccc(O)c(Cl)c2Cl)CCCCC1 [FENHEXAMID] | 0.8 |

tested on: Oculimacula yallundae; assay: Fungicidal activity against prochloraz-susceptible Oculimacula yallundae isolate ProS assessed as inhibition of mycelial growth in presence of 10 g glucose incubated at 19 degC in dark for 4 weeks; assay type: functional, organism-based; details: 672 h

| SMILES | EC50 [µg/mL] |
| --- | --- |
| Fc1ccc([C@]2(Cn3cncn3)O[C@H]2c2ccccc2Cl)cc1 (relative stereo) [EPOXICONAZOLE] | 0.3 |

tested on: Oculimacula yallundae; assay: Resistance index, ratio of EC50 for sterol 14alpha-demethylation inhibitor-resistant Oculimacula yallundae MDR to EC50 for sterol 14alpha-demethylation inhibitor-resistant Oculimacula yallundae TriR1 by mycelial growth inhibition assay; assay type: functional; details: not given

| SMILES | Ratio EC50 |
| --- | --- |
| Fc1ccc([C@]2(Cn3cncn3)O[C@H]2c2ccccc2Cl)cc1 (relative stereo) [EPOXICONAZOLE] | 2 |
| CC(C1CC1)C(O)(Cn1cncn1)c1ccc(Cl)cc1 (configuration not stated) [CYPROCONAZOLE] | 0.9 |
| CC1(C(=O)Nc2ccc(O)c(Cl)c2Cl)CCCCC1 [FENHEXAMID] | 1.7 |

tested on: Oculimacula yallundae; assay: Resistance index, ratio of EC50 for sterol 14alpha-demethylation inhibitor-resistant Oculimacula yallundae TriR2 to EC50 for sterol 14alpha-demethylation inhibitor-resistant Oculimacula yallundae TriR1 by germ tube elongation assay; assay type: functional; details: not given

| SMILES | Ratio EC50 |
| --- | --- |
| Fc1ccc([C@]2(Cn3cncn3)O[C@H]2c2ccccc2Cl)cc1 (relative stereo) [EPOXICONAZOLE] | 2 |
| CC(C1CC1)C(O)(Cn1cncn1)c1ccc(Cl)cc1 (configuration not stated) [CYPROCONAZOLE] | 0.6 |
| CC1(C(=O)Nc2ccc(O)c(Cl)c2Cl)CCCCC1 [FENHEXAMID] | 1 |

tested on: Oculimacula yallundae; assay: Resistance index, ratio of EC50 for sterol 14alpha-demethylation inhibitor-resistant Oculimacula yallundae MDR to EC50 for wild type Oculimacula yallundae TriS by germ tube elongation assay; assay type: functional; details: not given

| SMILES | Ratio EC50 |
| --- | --- |
| Fc1ccc([C@]2(Cn3cncn3)O[C@H]2c2ccccc2Cl)cc1 (relative stereo) [EPOXICONAZOLE] | 150 |
| CC(C1CC1)C(O)(Cn1cncn1)c1ccc(Cl)cc1 (configuration not stated) [CYPROCONAZOLE] | 160 |
| CC1(C(=O)Nc2ccc(O)c(Cl)c2Cl)CCCCC1 [FENHEXAMID] | 33 |

tested on: Oculimacula yallundae; assay: Resistance index, ratio of EC50 for sterol 14alpha-demethylation inhibitor-resistant Oculimacula yallundae TriR1 to EC50 for wild type Oculimacula yallundae TriS by germ tube elongation assay; assay type: functional; details: not given

| SMILES | Ratio EC50 |
| --- | --- |
| Fc1ccc([C@]2(Cn3cncn3)O[C@H]2c2ccccc2Cl)cc1 (relative stereo) [EPOXICONAZOLE] | 30 |
| CC(C1CC1)C(O)(Cn1cncn1)c1ccc(Cl)cc1 (configuration not stated) [CYPROCONAZOLE] | 160 |
| CC1(C(=O)Nc2ccc(O)c(Cl)c2Cl)CCCCC1 [FENHEXAMID] | 1.2 |
